Where two headings read alike, the source gives them in different places.
Columns and labels:
Type in all cases: cell-based, Escherichia coli
[1] = tested on: E. coli screening strain DR1212; parameters: unit not given here
Method: (§1) The level of drug-resistance of screening strain DR1212 was analyzed by standard MIC assay in MHB liquid medium and the result was summarized in Table 11. Similar to screening strains, DR1234 and CM166, DR1212 is also resistant to drugs whose resistant genes have been introduced.

[2] = tested on: E. coli screening strain CM435; parameters: Minimal inhibitory concentrations (MIC90) CM435: unit not given here; details: Table 13, MHB medium
[3] = tested on: E. coli MG1655; parameters: unit not given here
Method: (§2) The screening strain, DR1234, was established after all desired drug-resistant genes listed in Table 5 had been delivered into the parent E. coli strain, MG1655, by methods described above. Its level of drug resistance was analyzed by the standard minimum inhibitory concentration (MIC) assay in MHB liquid medium (Chantot, et al., 1986, “Antibacterial activity of roxithromycin: a laboratory evaluation,” J. Antibiot, 39(5):660-8) and the result was summarized in Table 7.
(§3) The level of drug resistance of CM166 was estimated by MIC assay carried out in MHB liquid medium and the results were summarized in Table 9. CM166 is resistant to antibacterial agents whose resistant genes have been incorporated into the strain, but not to other antibacterial drugs whose resistant genes are not incorporated.
as §1
(§4) The level of drug resistance of these screening strains (both intermediates and finals) was evaluated by standard MIC assay in MHB liquid medium and the result of Strain CM242 is summarized in Table 12.
(§5) The level of drug resistance of screening strains CM400 and CM435 was evaluated by standard MIC assay in MHB liquid medium and the results are summarized in Table 13. According to the MIC results, CM435 is hypersensitive to Bleomycin, Daunorucibin, Coumermycin A1 and Erythromycin. Screening strain CM435 and others, which are hypersensitive to certain types of antimicrobial agents, are advantageous in detecting bioactive compounds with low concentration in the screening system.

[4] = tested on: E. coli screening strain CM166; parameters: unit not given here; details: Table 9, MHB medium
Text: as §3

[5] = tested on: E. coli screening strain DR1234; parameters: unit not given here
Method: as §2

[6] = tested on: E. coli screening strain CM242; parameters: unit not given here; details: second Table 12, MHB medium
Method: as §4

[7] = tested on: E. coli screening strain CM400; parameters: unit not given here; details: Table 13, MHB medium
Method: as §5

## [H]/N=C(/N)N[C@H]1[C@H](O)[C@@H](O)[C@H](O[C@@H]2O[C@@H](C)[C@](O)(C=O)[C@H]2O[C@@H]2O[C@@H](CO)[C@H](O)[C@@H](O)[C@@H]2NC)[C@@H](N/C(N)=N\[H])[C@@H]1O [Streptomycin]
[1]; Table 11, MHB medium
  Minimal inhibitory concentrations (MIC90) DR1212: >400
[2]
  Minimal inhibitory concentrations (MIC90) CM435: >64
[3]; Table 7, MHB medium
  Minimal inhibitory concentrations (MIC90) MG1655: 3.2
[3]; Table 9, MHB medium
  Minimal inhibitory concentrations (MIC90) MG1655: 3.2
[3]; Table 11, MHB medium
  Minimal inhibitory concentrations (MIC90) MG1655: 3.2
[3]; Table 13, MHB medium
  Minimal inhibitory concentrations (MIC90) MG1655: 4
[3]; second Table 12, MHB medium
  Minimal inhibitory concentrations (MIC90) MG1655: 3.2
[4]
  Minimal inhibitory concentrations (MIC90) CM166: >400
[5]; Table 7, MHB medium
  Minimal inhibitory concentrations (MIC90) DR1234: >400
[6]
  Minimal inhibitory concentrations (MIC90) CM242: >400
[7]
  Minimal inhibitory concentrations (MIC90) CM400: >64

## CO[C@H]1/C=C/O[C@@]2(C)Oc3c(C)c(O)c4c(O)c(cc(O)c4c3C2=O)NC(=O)/C(C)=C\C=C\[C@H](C)[C@H](O)[C@@H](C)[C@@H](O)[C@@H](C)[C@H](OC(C)=O)[C@@H]1C [Rifamycin]
[2]
  Minimal inhibitory concentrations (MIC90) CM435: 16
[3]; Table 13, MHB medium
  Minimal inhibitory concentrations (MIC90) MG1655: 16
[7]
  Minimal inhibitory concentrations (MIC90) CM400: >64

## NC[C@H]1O[C@H](O[C@H]2[C@H](O)[C@@H](O[C@H]3O[C@H](CO)[C@@H](O)[C@H](N)[C@H]3O)[C@H](N)C[C@@H]2N)[C@H](O)[C@@H](O)[C@@H]1O [Kanamycin]
[1]
  Minimal inhibitory concentrations (MIC90) DR1212: 400
[2]
  Minimal inhibitory concentrations (MIC90) CM435: >64
[4]
  Minimal inhibitory concentrations (MIC90) CM166: >400
[5]
  Minimal inhibitory concentrations (MIC90) DR1234: >400
[6]
  Minimal inhibitory concentrations (MIC90) CM242: >400
[7]
  Minimal inhibitory concentrations (MIC90) CM400: >64

## NC[C@@H]1CC[C@@H](N)[C@@H](O[C@H]2[C@H](O)[C@@H](O[C@H]3O[C@H](CO)[C@@H](O)[C@H](N)[C@H]3O)[C@H](N)C[C@@H]2N)O1 [Dibekacin]
[3]; second Table 12, MHB medium
  Minimal inhibitory concentrations (MIC90) MG1655: 3.2
[6]
  Minimal inhibitory concentrations (MIC90) CM242: 400

## C[C@H]1[C@H](NC(=O)/C(=N\OC(C)(C)C(=O)O)c2csc(N)n2)C(=O)N1S(=O)(=O)O [Aztreonam]
[1]; Table 11, MHB medium
  Minimal inhibitory concentrations (MIC90) DR1212: ≦0.05
[3]; Table 7, MHB medium
  Minimal inhibitory concentrations (MIC90) MG1655: 0.1
[3]; Table 9, MHB medium
  Minimal inhibitory concentrations (MIC90) MG1655: 0.1
[3]; Table 11, MHB medium
  Minimal inhibitory concentrations (MIC90) MG1655: 0.1
[3]; Table 13, MHB medium
  Minimal inhibitory concentrations (MIC90) MG1655: 0.06
[3]; second Table 12, MHB medium
  Minimal inhibitory concentrations (MIC90) MG1655: 0.1
[4]
  Minimal inhibitory concentrations (MIC90) CM166: ≦0.05
[5]; Table 7, MHB medium
  Minimal inhibitory concentrations (MIC90) DR1234: ≦0.05
[6]
  Minimal inhibitory concentrations (MIC90) CM242: 0.3
[7]
  Minimal inhibitory concentrations (MIC90) CM400: <0.06

## NC[C@H]1O[C@H](O[C@H]2[C@H](O)[C@@H](O[C@H]3O[C@H](CO)[C@@H](O)[C@H](N)[C@H]3O)[C@H](N)C[C@@H]2N)[C@H](N)C[C@@H]1O [Tobramycin]
[1]; Table 11, MHB medium
  Minimal inhibitory concentrations (MIC90) DR1212: 25
[3]; Table 7, MHB medium
  Minimal inhibitory concentrations (MIC90) MG1655: 0.4
[3]; Table 9, MHB medium
  Minimal inhibitory concentrations (MIC90) MG1655: 0.4
[3]; Table 11, MHB medium
  Minimal inhibitory concentrations (MIC90) MG1655: 0.4
[3]; second Table 12, MHB medium
  Minimal inhibitory concentrations (MIC90) MG1655: 0.4
[4]
  Minimal inhibitory concentrations (MIC90) CM166: >400
[5]; Table 7, MHB medium
  Minimal inhibitory concentrations (MIC90) DR1234: 50
[6]
  Minimal inhibitory concentrations (MIC90) CM242: 100
